# Measured values: paper PMC12368479, “Inhibition of the Clathrin Terminal Domain—Amphiphysin Protein–Protein Interaction. Probing the Pitstop 2 Aromatic Moiety” (Chemmedchem, 2025)
# Where two headings read alike, the source gives them in different places.
# Columns and labels:
# [1] = target: T1, clathrin heavy chain NTD (amino acids 1–364) – amphiphysin 1 B/C domain protein–protein interaction (NTD‐PPI) (Homo sapiens, UniProt Q00610); assay: ELISA-based clathrin inhibitor binding assay (NTD-PPI)
# T1 construct: GST‐tagged clathrin heavy chain NTD (amino acids 1–364); made in house
# T1 sequence (Q00610 1-364): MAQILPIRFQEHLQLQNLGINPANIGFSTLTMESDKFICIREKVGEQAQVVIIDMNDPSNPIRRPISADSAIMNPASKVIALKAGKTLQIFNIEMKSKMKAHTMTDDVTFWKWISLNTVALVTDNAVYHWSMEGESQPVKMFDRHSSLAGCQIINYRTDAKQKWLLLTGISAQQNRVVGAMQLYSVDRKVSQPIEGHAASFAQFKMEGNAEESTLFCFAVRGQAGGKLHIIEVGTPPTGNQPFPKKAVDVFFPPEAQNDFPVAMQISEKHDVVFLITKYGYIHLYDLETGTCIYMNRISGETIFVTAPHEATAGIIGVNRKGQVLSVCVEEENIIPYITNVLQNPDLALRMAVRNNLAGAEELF
# Protocol: The clathrin inhibitor assay was based inhibition of protein–protein interaction (PPI) between clathrin and amphiphysin as described in our previous report.^[ [45], [54] ^] Bacterially expressed recombinant purified His6‐tagged amphiphysin 1 B/C domain (which comprises both the clathrin and the AP‐2 binding sites, amino acids 250‐578^[ [55] ^]) in screening buffer (20 mM HEPES, pH 7.4, 50 mM NaCl, 1 mM DTT, 1 mM PMSF) was added to a 384 well ELISA plate (Corning Maxisorp 3700) and bound to the plastic for 1 h at room temperature. […] Following extensive washes (with 20 mM HEPES, pH 7.4, 50 mM NaCl, 0.05% Tween 20), chemical compounds diluted in DMSO (10 μL) were added and incubated together with bacterially expressed recombinant GST‐tagged clathrin heavy chain NTD (amino acids 1–364) for 1 h at room temperature in screening buffer. After 3 washes, horseradish peroxidase‐coupled anti‐GST antibodies were added in screening buffer and the plate incubated for 40 min at room temperature. Following additional washes, 50 μL TMB (3,3′,5,5′‐tetramethylbenzidine) (Pierce Biotechnology) chromogenic substrate of horseradish peroxidase was added, and the plate was incubated for 10 min before the reaction was terminated by adding 50 μL 1N sulfuric acid to produce a yellow colour. The amount of bound protein was determined by spectrophotometric measurement in a plate reader. Relative binding was calculated as a percentage of DMSO control.
# [2] = target: T2, full length human Dynamin I (Homo sapiens, UniProt Q05193); assay: Dynamin GTPase activity, Malachite Green phosphate detection assay; format: biochemical
# T2 construct: full length human Dynamin I expressed in Sf21 insect cells; made in house; host or cells: Sf21 insect cells
# T2 sequence (Q05193 1-864): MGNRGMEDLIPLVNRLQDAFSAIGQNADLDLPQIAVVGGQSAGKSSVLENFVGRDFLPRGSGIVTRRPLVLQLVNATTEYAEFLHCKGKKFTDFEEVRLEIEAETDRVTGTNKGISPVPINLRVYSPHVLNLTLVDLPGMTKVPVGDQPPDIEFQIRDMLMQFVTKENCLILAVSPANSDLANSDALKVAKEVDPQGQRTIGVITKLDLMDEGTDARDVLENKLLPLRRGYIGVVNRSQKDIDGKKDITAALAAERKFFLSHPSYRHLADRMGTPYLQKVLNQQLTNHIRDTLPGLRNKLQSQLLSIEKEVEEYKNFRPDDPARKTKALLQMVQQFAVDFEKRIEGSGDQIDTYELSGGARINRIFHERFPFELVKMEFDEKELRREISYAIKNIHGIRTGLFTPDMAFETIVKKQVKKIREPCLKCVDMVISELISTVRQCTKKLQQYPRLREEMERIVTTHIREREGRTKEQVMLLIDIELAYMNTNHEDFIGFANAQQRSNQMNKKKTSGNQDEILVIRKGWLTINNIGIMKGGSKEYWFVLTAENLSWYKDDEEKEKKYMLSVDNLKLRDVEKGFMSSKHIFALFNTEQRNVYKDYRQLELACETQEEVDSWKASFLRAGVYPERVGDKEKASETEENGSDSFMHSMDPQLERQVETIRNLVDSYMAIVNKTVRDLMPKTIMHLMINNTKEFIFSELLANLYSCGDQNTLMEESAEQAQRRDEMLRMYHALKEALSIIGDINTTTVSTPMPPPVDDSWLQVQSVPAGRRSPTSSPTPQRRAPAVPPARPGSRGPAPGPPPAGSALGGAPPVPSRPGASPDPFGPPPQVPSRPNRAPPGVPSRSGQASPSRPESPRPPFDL
# Protocol: Dynamin GTPase activity was determined in vitro using the Malachite Green phosphate detection absorbance‐based assay within a 96‐well plate format as described previously. The enzyme source was full length human Dynamin I expressed in Sf21 insect cells and affinity‐purified on GST‐Amph2‐SH3 (rat Amphiphysin 2 (494–588)).^[ [56] ^]
# [3] = test system: transferrin uptake (CME) in U2OS osteosarcoma cells; assay: Clathrin-mediated endocytosis assay: transferrin (Tfn) uptake in U2OS cells; format: cell-based; conditions: for CME activity compared with Pitstop 2: in words; for inhibition at 5 µM: read-out: 2-point CME (% Inhibition) 5 µM
# Protocol: Using our previously reported CME assay in U2OS cells, the ability of these compounds to block endocytosis was examined (Table 5 ).^[ [48], [49] ^]
# CME was examined by a high‐throughput, quantitative assay for measuring transferrin (Tfn) uptake in U2OS osteosarcoma cells, based on methods described previously.^[ [48] ^]
# Compounds were made up fresh from powder stock just prior to commencing the assay, and stock solutions were stored at −20 °C for several months.
# [4] = Table 5, ELISA, read-out: NTD‐PPI IC50
# [5] = Table 5, dynamin GTPase, n = 1 or n = 2 as footnoted, NA = not active at 100 μM, read-out: Dynamin 1 IC50
# [6] = Homo sapiens, U2OS, Table 5, inhibition of transferrin‐red uptake in U2OS cells, '–'/NA = not active at 100 μM
# [7] = Table 2, library 2, ELISA, average of duplicate measurements (n=2), read-out: NTD‐PPI IC50
# [8] = Table 2, library 2, n = 3, triplicate, '–' = not active at 100 μM, read-out: Dyn 1 IC50
# [9] = Table S1, preliminary (n=1) unless otherwise noted, NA = not active, includes IC50 > 150 μM, read-out: Dynamin 1 IC50
# [10] = Table 4, library 4, ELISA, average of duplicate measurements (n = 2), read-out: NTD‐PPI IC50
# [11] = Table 4, library 4, n = 1 or n = 2 as footnoted, '–' = not active at 100 μM, read-out: Dynamin 1 IC50
compound,measurement,setting,value
"O=C1N=C(NS(=O)(=O)c2cccc3ccccc23)S/C1=C\c1ccc([N+](=O)[O-])cc1 [compound 13, (Z)‐N‐(5‐(4‐nitrobenzylidene)‐4‐oxo‐4,5‐dihydrothiazol‐2‐yl)naphthalene‐1‐sulfonamide]",IC50,"[1]; Table 1, library 1, ELISA, average of duplicate measurements (n=2), read-out: NTD‐PPI IC50",5.2 µM
same,IC50,[1]; [4],5.2 µM
same,IC50,"[2]; Table 1, library 1, n = 1 unless noted (19: n = 2), '–' = not active at 150 μM, read-out: Dyn 1 IC50",~56 µM
same,IC50,[2]; [5],55.8 µM
same,IC50,[3]; [6],~14.6 µM
same,CME activity compared with Pitstop 2,[3]; U2OS cells,comparable
"COc1cc(/C=C2\SC(NS(=O)(=O)c3cccc4ccccc34)=NC2=O)cc(OC)c1OC [compound 33, (Z)‐N‐(4‐oxo‐5‐(3,4,5‐trimethoxybenzylidene)‐4,5‐dihydrothiazol‐2‐yl)naphthalene‐1‐sulfonamide]",IC50,[1]; [7],14.1 µM
same,IC50,[2]; [8],> 100 µM
"O=C1N=C(NS(=O)(=O)c2cccc3ccccc23)S/C1=C\c1cccc(Cl)c1Cl [compound 34, (Z)‐N‐(5‐(2,3‐dichlorobenzylidene)‐4‐oxo‐4,5‐dihydrothiazol‐2‐yl)naphthalene‐1‐sulfonamide]",IC50,[1]; [7],26.1 µM
same,IC50,[2]; [8],> 100 µM
"O=C1N=C(NS(=O)(=O)c2cccc3ccccc23)S/C1=C\c1ccc(Cl)cc1Cl [compound 35, (Z)‐N‐(5‐(2,4‐dichlorobenzylidene)‐4‐oxo‐4,5‐dihydrothiazol‐2‐yl)naphthalene‐1‐sulfonamide]",IC50,[1]; [7],1.5 µM
same,IC50,[2]; [8],66.8 µM
"O=C1N=C(NS(=O)(=O)c2cccc3ccccc23)S/C1=C\c1ccc(Cl)c(Cl)c1 [compound 36, (Z)‐N‐(5‐(3,4‐dichlorobenzylidene)‐4‐oxo‐4,5‐dihydrothiazol‐2‐yl)naphthalene‐1‐sulfonamide]",IC50,[1]; [7],4.1 µM
same,IC50,[2]; [8],95.1 ± 7.4 µM
"O=C1N=C(NS(=O)(=O)c2cccc3ccccc23)S/C1=C\C1CCCC1 [compound 41, (Z)‐N‐(5‐(cyclopentylmethylene)‐4‐oxo‐4,5‐dihydrothiazol‐2‐yl)naphthalene‐1‐sulfonamide]",IC50,"[2]; Table 3, library 3, n = 1 unless otherwise stated (41, 42: n = 2), '–' = not active at 100 μM, read-out: Dynamin 1 IC50",> 100 µM
same,IC50,[2]; [9],> 150 µM
same,inhibition at 5 µM,"[3]; Homo sapiens, U2OS",11%
"O=C1N=C(NS(=O)(=O)c2cccc3ccccc23)S/C1=C\c1ccsc1 [compound 44, (Z)‐N‐(4‐oxo‐5‐(thiophen‐3‐ylmethylene)‐4,5‐dihydrothiazol‐2‐yl)naphthalene‐1‐sulfonamide]",IC50,[3]; [6],36.4 ± 13.7 µM
"O=C1N=C(NS(=O)(=O)c2cccc3ccccc23)S/C1=C\c1cc[nH]c1 [compound 45, (Z)‐N‐(5‐((1H‐pyrrol‐3‐yl)methylene)‐4‐oxo‐4,5‐dihydrothiazol‐2‐yl)naphthalene‐1‐sulfonamide]",IC50,[1]; [10],3 µM
same,IC50,[1]; [4],3 µM
same,IC50,[1]; read-out: NTD‐PPI IC50 (ELISA),33 µM
same,IC50,[3]; [6],~108 µM
same,IC50,"[3]; Homo sapiens, U2OS, U2OS cells",> 50 µM
"O=C1N=C(NS(=O)(=O)c2cccc3ccccc23)S/C1=C\c1ccoc1 [compound 46, (Z)‐N‐(5‐(furan‐3‐ylmethylene)‐4‐oxo‐4,5‐dihydrothiazol‐2‐yl)naphthalene‐1‐sulfonamide]",IC50,[1]; [10],2.11 µM
same,IC50,[1]; [4],2.11 µM
same,IC50,[3]; [6],31.5 ± 9.2 µM
"O=C1N=C(NS(=O)(=O)c2cccc3ccccc23)S/C1=C\c1ccc(Cl)o1 [compound 49, (Z)‐N‐(5‐((5‐chlorofuran‐2‐yl)methylene)‐4‐oxo‐4,5‐dihydrothiazol‐2‐yl)naphthalene‐1‐sulfonamide]",IC50,[1]; [10],3.31 µM
same,IC50,[1]; [4],3.31 µM
same,IC50,[1]; read-out: NTD‐PPI IC50 (ELISA),3.3 µM
same,IC50,[3]; [6],52.6 ± 9.1 µM
same,IC50,"[3]; Homo sapiens, U2OS, U2OS cells",> 50 µM
"O=C1N=C(NS(=O)(=O)c2cccc3ccccc23)S/C1=C\c1ccc(Br)o1 [compound 50, (Z)‐N‐(5‐((5‐bromofuran‐2‐yl)methylene)‐4‐oxo‐4,5‐dihydrothiazol‐2‐yl)naphthalene‐1‐sulfonamide]",IC50,[3]; [6],42.3 ± 25.7 µM
"O=C1N=C(NS(=O)(=O)c2cccc3ccccc23)S/C1=C\c1ccc(CO)o1 [compound 51, (Z)‐N‐(5‐((5‐(hydroxymethyl)furan‐2‐yl)methylene)‐4‐oxo‐4,5‐dihydrothiazol‐2‐yl)naphthalene‐1‐sulfonamide]","NTD‐PPI activity relative to halogenated furans (49, 50)","[1]; ELISA, in words",threefold less active
same,IC50,[1]; [10],6.33 µM
same,IC50,[1]; [4],6.33 µM
same,IC50,[1]; read-out: NTD‐PPI IC50 (ELISA),6.3 µM
same,IC50,[3]; [6],~156 µM
same,IC50,"[3]; Homo sapiens, U2OS, U2OS cells",> 50 µM
"CN1CCOc2cc(/C=C3\SC(NS(=O)(=O)c4cccc5ccccc45)=NC3=O)ccc21 [compound 53, (Z)‐N‐(5‐((4‐methyl‐3,4‐dihydro‐2H‐benzo[b][1,4]oxazin‐7‐yl)methylene)‐4‐oxo‐4,5‐dihydrothiazol‐2‐yl)naphthalene‐1‐sulfonamide]",NTD‐PPI activity relative to 54,"[1]; ELISA, in words",threefold less active
same,IC50,[1]; [10],3.3 µM
same,IC50,[1]; read-out: NTD‐PPI IC50 (ELISA),< 5 µM
same,IC50,[2]; [11],100.7 ± 1 µM
"O=C1N=C(NS(=O)(=O)c2cccc3ccccc23)S/C1=C\C1=Cc2ccccc2OC1 [compound 55, (Z)‐N‐(5‐((2H‐chromen‐3‐yl)methylene)‐4‐oxo‐4,5‐dihydrothiazol‐2‐yl)naphthalene‐1‐sulfonamide]",IC50,[2]; [11],69.3 ± 7.1 µM
same,IC50,"[2]; values quoted in running text (section 2.2), read-out: Dynamin IC50",69 µM
same,inhibition at 5 µM,"[3]; Homo sapiens, U2OS",0%
same,inhibition at 50 µM,"[3]; Homo sapiens, U2OS, read-out: 2-point CME (% Inhibition) 50 µM",40%
"O=C1N=C(NS(=O)(=O)c2cccc3ccccc23)S/C1=C\c1ccc2nsnc2c1 [compound 58, (Z)‐N‐(5‐(benzo[c][1,2,5]thiadiazol‐5‐ylmethylene)‐4‐oxo‐4,5‐dihydrothiazol‐2‐yl)naphthalene‐1‐sulfonamide]",IC50,[2]; [11],~69.3 µM
same,IC50,[2]; [5],~69.3 µM
same,IC50,[3]; [6],16.8 ± 7.9 µM
same,CME activity compared with Pitstop 2,[3]; U2OS cells,comparable
"O=C1N=C(NS(=O)(=O)c2cccc3ccccc23)S/C1=C\c1c[nH]c2ccc(Cl)cc12 [compound 66, (Z)‐N‐(5‐((5‐chloro‐1H‐indol‐3‐yl)methylene)‐4‐oxo‐4,5‐dihydrothiazol‐2‐yl)naphthalene‐1‐sulfonamide]",IC50,[2]; [11],> 100 µM
same,IC50,[2]; [9],> 150 µM
same,inhibition at 5 µM,"[3]; Homo sapiens, U2OS",2%
